The values that follow come from patent US20260232619A1, “TREATMENT OF NEUROLOGICAL DISORDERS WITH ALLICIN AND ANALOGUES THEREOF” (KATHOLIEKE UNIVERSITEIT LEUVEN, priority 2023, published 2026).

For test [1], the system named is scn1lab−/− larvae. Nature of the test: Locomotor activity assessment in zebrafish scn1lab−/− mutant model of Dravet syndrome. Format: in vivo, zebrafish (Danio rerio). As for the experimental part:
(§1) FIG. 2. […] (A) Anti-seizure treatment schedule: 3 dpf scn1lab−/− larvae were exposed to the MTC of allicin or VHC control. 2 days later, abnormal locomotor behavior and epileptiform brain activity of treated larvae was analyzed using an automated tracking device (Noldus) and local field potential recordings, respectively. (B) The normalized cumulative duration of activity (%) is represented as mean±SEM. According to the treatment schedule depicted in panel A, anti-seizure effect of allicin was examined in scnLab−/− larvae at 5 dpf (n=22), and compared to VHC treated scnLab−/− larvae (n=24). VHC treated scn1Lab+/+ larvae (n=24) were included as control. (C) The average number of epileptiform events per 10-minute recording is represented as mean±SEM. Treatment schedule depicted in panel A was followed. Accordingly, electrophysiological effect of allicin was examined in scnLab−/− larvae at 5 dpf (n=15), and compared to VHC treated scnLab−/− larvae (n=15). VHC treated scn1Lab+/+ larvae (n=8) were included as control (D) Early treatment schedule: 1 dpf scn1lab−/− larvae were dechorionated and exposed to the MTC of allicin or VHC control. 2 days later, swimming medium of the larvae was replenished with identical concentrations of allicin or VHC, respectively. At 5 dpf, abnormal locomotor behavior and epileptiform brain activity of treated larvae was analyzed using an automated tracking device (Noldus) and local field potential recordings, respectively. (continued on page 6)(continued from page 5) (E) The normalized cumulative duration of activity (%) is represented as mean±SEM. […] At 5 dpf, abnormal locomotor behavior and epileptiform brain activity of treated larvae was analyzed using an automated tracking device (Noldus) and local field potential recordings, respectively. […]
(§2) The mutant larval fish typically develop signs of epilepsy (hyperlocomotor activity, abnormal brain electrical discharges as assessed by Local Field Potential (LFP) measurements) at 4-5 dpf (days post-fertilization). […]

For test [2], the system named is scn1lab−/− larvae. In words: Non-invasive local field potential (LFP) recordings in zebrafish scn1lab−/− mutant model of Dravet syndrome. Type of test: in vivo, zebrafish (Danio rerio). As for the experimental part: as §1, §2

Entries after “also recorded” stand apart in the source; their conditions may differ.

Take `C=CCS[S@@+]([O-])CC=C` (racemic) [allicin, S-(Prop-2-en-1-yl) prop-2-ene-1-sulfinothioate]: the “abnormal locomotor behavior (hyperlocomotor activity) compared to VHC treated controls” value with scn1lab−/− larvae [1] (anti-seizure treatment schedule: allicin at MTC from 3 dpf onwards (after seizure onset), measured at 5 dpf (FIG. 2B)) is on record as “did not demonstrate significant decreases; also recorded: rescue effect is not present”. Also, in the test with scn1lab−/− larvae [1] (early treatment schedule: dechorionated at 1 dpf, exposed to allicin at MTC for 4 days, measured at 5 dpf (FIG. 2E)), the “abnormal hyperactive behavior compared to VHC controls” value is given as “highly significant decreases”. The “typical symptoms of epilepsy: hyperlocomotor activity” value with scn1lab−/− larvae [1] (exposed during the 0-3 dpf period to non-toxic concentrations, measured at 5 dpf) was “are not present”. Also, in the test on scn1lab−/− larvae [2] (anti-seizure treatment schedule: allicin at MTC from 3 dpf onwards (after seizure onset), LFP at 5 dpf (FIG. 2C)), the “epileptiform brain activity compared to VHC treated controls” value is given as “did not demonstrate significant decreases; also recorded: rescue effect is not present”. In addition, the epileptiform events result with scn1lab−/− larvae [2] (early treatment schedule: dechorionated at 1 dpf, exposed to allicin at MTC for 4 days, LFP at 5 dpf (FIG. 2F)) is “significantly reduced to similar levels as observed in wild-type and heterozygous siblings”. The “typical symptoms of epilepsy: abnormal brain electrical discharges” value in the test on scn1lab−/− larvae [2] (exposed during the 0-3 dpf period to non-toxic concentrations, measured at 5 dpf (data not shown)) was “are not present”.
